Tests used:
Assay in all cases: relative viability (nuclei count vs DMSO), 5 days (fraction); higher = more cells survive
MK-2206 + Bortezomib = compound: NC1(c2ccc(-c3nc4ccn5c(=O)[nH]nc5c4cc3-c3ccccc3)cc2)CCC1 [MK-2206] + CC(C)C[C@H](NC(=O)[C@H](Cc1ccccc1)NC(=O)c1cnccn1)B(O)O [Bortezomib] (partner 0.002 µM)
Summary of the method: (§1)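 Relative viability was taken as the ratio of nuclei in treated wells to nuclei in vehicle wells. Lung cancer cell lines in 1536-well plates received compounds by pin tool one day after seeding, either one drug alone or a fixed anchor-drug dose plus five library-drug doses (not always all listed) in √10 steps. Nuclei were counted on 4× images after 5 days of treatment, and values are medians of duplicate plates.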

MK-2206 + Palbociclib = compound: NC1(c2ccc(-c3nc4ccn5c(=O)[nH]nc5c4cc3-c3ccccc3)cc2)CCC1 [MK-2206] + CC(=O)c1c(C)c2cnc(Nc3ccc(N4CCNCC4)cn3)nc2n(C2CCCC2)c1=O [Palbociclib] (partner 0.5 µM)
Summary of the method: as §1

MK-2206 + Alpelisib = compound: NC1(c2ccc(-c3nc4ccn5c(=O)[nH]nc5c4cc3-c3ccccc3)cc2)CCC1 [MK-2206] + Cc1nc(NC(=O)N2CCC[C@H]2C(N)=O)sc1-c1ccnc(C(C)(C)C(F)(F)F)c1 [Alpelisib] (partner 2 µM)
Summary of the method: as §1

MK-2206 + Olaparib = compound: NC1(c2ccc(-c3nc4ccn5c(=O)[nH]nc5c4cc3-c3ccccc3)cc2)CCC1 [MK-2206] + O=C(c1cc(Cc2n[nH]c(=O)c3ccccc23)ccc1F)N1CCN(C(=O)C2CC2)CC1 [Olaparib] (partner 8 µM)
Summary of the method: as §1

Pictilisib + Foretinib = compound: CS(=O)(=O)N1CCN(Cc2cc3nc(-c4cccc5[nH]ncc45)nc(N4CCOCC4)c3s2)CC1 [Pictilisib] + COc1cc2c(Oc3ccc(NC(=O)C4(C(=O)Nc5ccc(F)cc5)CC4)cc3F)ccnc2cc1OCCCN1CCOCC1 [Foretinib] (partner 0.25 µM)
Summary of the method: as §1

Cell Line	relative viability (MK-2206 + Bortezomib; first compound 0.01 µM)	relative viability (MK-2206 + Bortezomib; first compound 0.03162 µM)	relative viability (MK-2206 + Bortezomib; first compound 0.3162 µM)	relative viability (MK-2206 + Bortezomib; first compound 1 µM)	relative viability (MK-2206 + Palbociclib; first compound 0.01 µM)	relative viability (MK-2206 + Palbociclib; first compound 0.03162 µM)	relative viability (MK-2206 + Palbociclib; first compound 0.3162 µM)	relative viability (MK-2206 + Palbociclib; first compound 1 µM)	relative viability (MK-2206 + Alpelisib; first compound 0.01 µM)	relative viability (MK-2206 + Alpelisib; first compound 0.03162 µM)	relative viability (MK-2206 + Alpelisib; first compound 0.3162 µM)	relative viability (MK-2206 + Alpelisib; first compound 1 µM)	relative viability (MK-2206 + Olaparib; first compound 0.01 µM)	relative viability (MK-2206 + Olaparib; first compound 0.03162 µM)	relative viability (MK-2206 + Olaparib; first compound 0.3162 µM)	relative viability (MK-2206 + Olaparib; first compound 1 µM)	relative viability (Pictilisib + Foretinib; first compound 0.02 µM)	relative viability (Pictilisib + Foretinib; first compound 0.06325 µM)	relative viability (Pictilisib + Foretinib; first compound 0.6325 µM)	relative viability (Pictilisib + Foretinib; first compound 2 µM)
NCI-H460	1.03	1.2	0.97	1.06	0.137	0.224	0.142	0.0552	0.481	0.419	0.256	0.231	0.397	0.465	0.484	0.5	1.01	0.978	0.883	0.243
NCI-H2228	0.973	1.04	0.643	0.413	0.586	0.848	0.487	0.725	0.625	0.621	0.288	0.262	0.832	0.594	0.464	0.417	0.853	0.917	0.496	0.291
NCI-H2085	1.06	1.12	0.929	0.716	0.433	0.558	0.397	0.522	0.928	0.914	0.807	0.702	0.778	0.858	0.786	0.732	0.858	0.811	0.572	0.329
HCC-366	1.01	0.982	1.04	1.02	0.392	0.38	0.225	0.244	0.526	0.48	0.244	0.212	0.367	0.472	0.328	0.322	0.978	0.936	0.68	0.329
EPLC-272H	1.05	1.06	–	1.01	0.32	0.287	0.315	0.328	0.993	0.851	–	0.929	0.855	0.673	0.796	0.527	0.711	0.687	0.376	0.173
201T	1.06	1.13	1.17	1.16	0.356	0.344	0.342	0.332	0.97	1.05	0.958	0.958	0.825	0.857	0.858	0.856	1.06	1.07	0.846	0.617
NCI-H3122	1.03	0.942	1.09	0.973	0.187	0.179	0.201	0.193	0.737	0.659	0.677	0.636	0.681	0.687	0.656	0.63	0.998	0.997	0.973	0.785
NCI-H838	0.822	0.916	0.836	0.751	0.223	0.226	0.203	0.193	1.02	1.02	1.01	0.943	0.768	0.857	0.767	0.685	0.973	0.895	0.929	0.45
NCI-H1755	0.96	0.99	0.838	0.689	0.461	0.419	0.388	0.43	0.919	0.93	0.881	0.863	0.875	0.929	0.901	0.825	0.901	0.883	0.778	0.58
HCC-15	0.98	1.07	1	0.811	0.695	0.792	0.662	0.653	0.836	0.884	0.859	0.832	0.722	0.757	0.625	0.692	1.07	0.966	0.852	0.659
NCI-H2087	0.763	0.875	0.807	0.69	0.225	0.226	0.184	0.217	1.17	1.03	1.12	1.1	0.641	0.552	0.592	0.51	1	1.19	0.828	0.588
LCLC-103H	1.04	1.03	1.02	1.07	0.496	0.499	0.461	0.462	1.02	0.977	0.933	0.826	0.548	0.768	0.777	0.731	0.77	0.634	0.403	0.393
HCC-78	0.415	0.606	0.475	0.395	0.426	0.489	0.496	0.398	0.372	0.336	0.256	0.21	0.932	1.06	0.716	0.739	0.488	0.5	0.392	0.308
NCI-H1666	0.832	0.801	0.613	0.5	0.63	0.675	0.652	0.586	0.957	0.89	0.729	0.735	0.702	0.794	0.802	0.774	0.987	0.968	0.914	0.66
EKVX	0.996	1.21	0.705	0.649	0.542	0.458	0.363	0.352	0.761	0.904	0.843	0.82	0.866	0.777	0.745	0.67	0.855	0.88	0.721	0.438
COR-L 105	0.766	0.725	0.997	0.843	0.428	0.436	0.441	0.408	0.98	0.951	0.825	0.677	0.774	0.7	0.57	0.749	1.08	1.09	0.996	0.49

Cell Line	relative viability (MK-2206 + Bortezomib; first compound 0.01 µM)	relative viability (MK-2206 + Bortezomib; first compound 0.03162 µM)	relative viability (MK-2206 + Bortezomib; first compound 0.3162 µM)	relative viability (MK-2206 + Bortezomib; first compound 1 µM)	relative viability (MK-2206 + Palbociclib; first compound 0.01 µM)	relative viability (MK-2206 + Palbociclib; first compound 0.03162 µM)	relative viability (MK-2206 + Palbociclib; first compound 0.3162 µM)	relative viability (MK-2206 + Palbociclib; first compound 1 µM)	relative viability (MK-2206 + Alpelisib; first compound 0.01 µM)	relative viability (MK-2206 + Alpelisib; first compound 0.03162 µM)	relative viability (MK-2206 + Alpelisib; first compound 0.3162 µM)	relative viability (MK-2206 + Alpelisib; first compound 1 µM)	relative viability (MK-2206 + Olaparib; first compound 0.01 µM)	relative viability (MK-2206 + Olaparib; first compound 0.03162 µM)	relative viability (MK-2206 + Olaparib; first compound 0.3162 µM)	relative viability (MK-2206 + Olaparib; first compound 1 µM)	relative viability (Pictilisib + Foretinib; first compound 0.02 µM)	relative viability (Pictilisib + Foretinib; first compound 0.06325 µM)	relative viability (Pictilisib + Foretinib; first compound 0.6325 µM)	relative viability (Pictilisib + Foretinib; first compound 2 µM)
NCI-H322M	1.12	1.35	1.31	1.41	0.51	0.469	0.519	0.527	0.864	0.79	0.732	0.701	0.778	0.806	0.782	0.874	0.936	0.985	0.792	0.559
HARA	1.16	1.31	1.08	0.916	0.268	0.343	0.27	0.221	0.789	0.745	0.611	0.582	0.842	0.779	0.758	0.625	0.828	0.906	0.851	0.581
NCI-H2023	0.958	0.838	0.778	0.612	0.39	0.347	0.297	0.208	0.517	0.598	0.472	0.405	0.463	0.506	0.436	0.44	0.838	0.804	0.578	0.183
NCI-H1437	0.521	0.531	0.444	0.529	0.304	0.332	0.336	0.286	0.983	0.979	0.764	0.83	0.632	0.643	0.698	0.653	1.23	1.29	1.36	0.96
BEN	0.775	0.821	1	0.528	0.493	0.516	0.522	0.498	0.998	1.11	1.08	1.1	1.06	1.2	1.14	1.02	0.83	0.599	0.587	0.538
LXF-289	0.949	1.04	1.06	1.06	0.581	0.628	0.594	0.576	1.06	1.09	1.02	1	1.05	1.04	1.09	1.06	1.01	0.931	0.957	0.926
NCI-H1993	1.08	1.2	0.769	0.613	0.638	0.74	0.545	0.471	0.73	0.668	0.663	0.652	0.941	1.05	0.99	0.652	0.678	0.613	0.69	0.599
NCI-H727	0.901	0.828	0.587	0.54	0.775	0.658	0.638	0.625	0.636	0.571	0.404	0.456	0.696	0.674	0.716	0.675	0.76	0.843	0.672	0.467
LOU-NH91	0.466	0.521	0.47	0.443	0.531	0.46	0.507	0.547	0.73	0.796	0.667	0.682	0.901	0.98	0.91	0.847	0.73	0.886	0.834	0.738
NCI-H1975	0.464	0.34	0.28	0.261	0.604	0.529	0.49	0.168	0.657	0.551	0.509	0.487	0.705	0.782	0.764	0.663	0.834	0.902	0.603	0.25
PC-3 [JPC-3]	0.812	0.94	0.841	0.805	0.5	0.509	0.535	0.519	0.985	1.01	1.02	1.04	1.09	1.12	1.18	1.12	1.01	1.09	0.931	0.827
NCI-H2126	1.09	1.11	1.07	1.06	0.372	0.358	0.357	0.335	0.719	0.707	0.678	0.621	0.932	1.01	0.87	0.925	1.23	1.14	0.931	0.423
LU99A	1.27	1.12	1.14	1.06	0.41	0.419	0.413	0.35	0.569	0.559	0.396	0.472	0.283	0.231	0.251	0.287	1.04	0.866	0.674	0.464
NCI-H23	0.906	1.04	0.91	0.975	0.555	0.5	0.427	0.459	0.705	0.805	0.784	0.779	0.302	0.326	0.255	0.285	0.919	0.94	0.778	0.437
PC-14	0.732	0.858	0.811	0.851	0.512	0.481	0.589	0.474	0.852	0.98	0.74	0.881	0.274	0.313	0.371	0.354	1.04	0.976	0.953	0.805
